Read-outs that look alike come from different tables or passages of the source.
Columns and labels:
Assay in all cases: selectivity profiling in a panel of 340 wild-type kinases (Reaction Biology Europe)
Assay type in all cases: binding
340 wild-type kinases [1] = target: T1, 340 wild-type kinases (Homo sapiens, UniProt Q13188)
T1 construct: purchased Reaction Biology Europe
T1 sequence (Q13188 1-491): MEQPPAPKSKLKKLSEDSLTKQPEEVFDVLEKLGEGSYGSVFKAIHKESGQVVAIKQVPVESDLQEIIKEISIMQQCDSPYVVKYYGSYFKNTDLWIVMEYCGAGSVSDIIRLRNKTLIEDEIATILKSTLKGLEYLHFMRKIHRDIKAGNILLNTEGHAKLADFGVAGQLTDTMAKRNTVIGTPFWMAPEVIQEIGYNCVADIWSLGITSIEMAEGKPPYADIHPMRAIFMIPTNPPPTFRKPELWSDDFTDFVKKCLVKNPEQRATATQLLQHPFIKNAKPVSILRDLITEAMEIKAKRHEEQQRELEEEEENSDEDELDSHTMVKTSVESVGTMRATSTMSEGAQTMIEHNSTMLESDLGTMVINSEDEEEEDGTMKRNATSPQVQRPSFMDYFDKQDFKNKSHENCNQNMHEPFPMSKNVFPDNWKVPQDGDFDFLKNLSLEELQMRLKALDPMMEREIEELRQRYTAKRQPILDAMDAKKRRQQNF

340 wild-type kinases [2] = target: T2, 340 wild-type kinases (Homo sapiens, UniProt P49137)
T2 construct: purchased Reaction Biology Europe

340 wild-type kinases [3] = target: T3, 340 wild-type kinases (Homo sapiens, UniProt Q9H2G2)
T3 construct: purchased Reaction Biology Europe

340 wild-type kinases [4] = target: T4, 340 wild-type kinases (Homo sapiens, UniProt Q13705)
T4 construct: purchased Reaction Biology Europe

340 wild-type kinases [5] = target: T5, 340 wild-type kinases (Homo sapiens, UniProt Q13153)
T5 construct: purchased Reaction Biology Europe

340 wild-type kinases [6] = target: T6, 340 wild-type kinases (Homo sapiens, UniProt Q13976)
T6 construct: purchased Reaction Biology Europe
T6 sequence (Q13976 1-671): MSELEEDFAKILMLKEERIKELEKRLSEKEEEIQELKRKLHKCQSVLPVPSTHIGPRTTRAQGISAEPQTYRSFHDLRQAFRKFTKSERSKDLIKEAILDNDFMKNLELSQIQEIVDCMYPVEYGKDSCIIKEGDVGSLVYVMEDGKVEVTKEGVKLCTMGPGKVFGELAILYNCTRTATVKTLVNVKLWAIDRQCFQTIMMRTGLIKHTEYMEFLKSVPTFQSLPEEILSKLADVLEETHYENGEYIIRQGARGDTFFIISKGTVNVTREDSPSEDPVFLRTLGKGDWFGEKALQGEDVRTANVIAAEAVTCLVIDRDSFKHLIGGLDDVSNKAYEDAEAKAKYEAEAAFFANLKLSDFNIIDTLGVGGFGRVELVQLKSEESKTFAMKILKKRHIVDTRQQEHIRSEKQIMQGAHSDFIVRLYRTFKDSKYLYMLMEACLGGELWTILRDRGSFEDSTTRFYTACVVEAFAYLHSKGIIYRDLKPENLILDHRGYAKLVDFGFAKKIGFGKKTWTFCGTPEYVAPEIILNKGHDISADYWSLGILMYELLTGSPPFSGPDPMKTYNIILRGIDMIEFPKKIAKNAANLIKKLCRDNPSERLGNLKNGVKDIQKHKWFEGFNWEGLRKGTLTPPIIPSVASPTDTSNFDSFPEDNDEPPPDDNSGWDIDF

340 wild-type kinases [7] = target: T7, 340 wild-type kinases (Homo sapiens, UniProt P27361)
T7 construct: purchased Reaction Biology Europe

340 wild-type kinases [8] = target: T8, 340 wild-type kinases (Homo sapiens, UniProt Q8TD08)
T8 construct: purchased Reaction Biology Europe
T8 sequence (Q8TD08 1-544): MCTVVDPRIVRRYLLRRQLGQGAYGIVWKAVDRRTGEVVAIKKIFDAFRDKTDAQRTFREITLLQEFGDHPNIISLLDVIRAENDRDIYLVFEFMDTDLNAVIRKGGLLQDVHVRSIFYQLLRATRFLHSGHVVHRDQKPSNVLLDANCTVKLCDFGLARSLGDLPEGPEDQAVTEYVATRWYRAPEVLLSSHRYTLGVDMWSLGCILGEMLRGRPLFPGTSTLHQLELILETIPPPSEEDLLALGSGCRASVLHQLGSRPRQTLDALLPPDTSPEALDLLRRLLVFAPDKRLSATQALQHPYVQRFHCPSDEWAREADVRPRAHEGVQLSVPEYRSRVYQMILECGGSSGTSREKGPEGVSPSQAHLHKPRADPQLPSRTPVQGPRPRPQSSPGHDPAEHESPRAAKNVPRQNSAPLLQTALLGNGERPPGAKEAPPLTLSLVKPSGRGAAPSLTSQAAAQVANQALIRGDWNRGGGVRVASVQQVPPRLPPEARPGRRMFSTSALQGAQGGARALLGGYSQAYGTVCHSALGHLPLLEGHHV

340 wild-type kinases [9] = target: T9, 340 wild-type kinases (Homo sapiens, UniProt Q13882)
T9 construct: purchased Reaction Biology Europe

340 wild-type kinases [10] = target: T10, 340 wild-type kinases (Homo sapiens, UniProt Q5S007)
T10 construct: purchased Reaction Biology Europe
T10 sequence (Q5S007 whole entry): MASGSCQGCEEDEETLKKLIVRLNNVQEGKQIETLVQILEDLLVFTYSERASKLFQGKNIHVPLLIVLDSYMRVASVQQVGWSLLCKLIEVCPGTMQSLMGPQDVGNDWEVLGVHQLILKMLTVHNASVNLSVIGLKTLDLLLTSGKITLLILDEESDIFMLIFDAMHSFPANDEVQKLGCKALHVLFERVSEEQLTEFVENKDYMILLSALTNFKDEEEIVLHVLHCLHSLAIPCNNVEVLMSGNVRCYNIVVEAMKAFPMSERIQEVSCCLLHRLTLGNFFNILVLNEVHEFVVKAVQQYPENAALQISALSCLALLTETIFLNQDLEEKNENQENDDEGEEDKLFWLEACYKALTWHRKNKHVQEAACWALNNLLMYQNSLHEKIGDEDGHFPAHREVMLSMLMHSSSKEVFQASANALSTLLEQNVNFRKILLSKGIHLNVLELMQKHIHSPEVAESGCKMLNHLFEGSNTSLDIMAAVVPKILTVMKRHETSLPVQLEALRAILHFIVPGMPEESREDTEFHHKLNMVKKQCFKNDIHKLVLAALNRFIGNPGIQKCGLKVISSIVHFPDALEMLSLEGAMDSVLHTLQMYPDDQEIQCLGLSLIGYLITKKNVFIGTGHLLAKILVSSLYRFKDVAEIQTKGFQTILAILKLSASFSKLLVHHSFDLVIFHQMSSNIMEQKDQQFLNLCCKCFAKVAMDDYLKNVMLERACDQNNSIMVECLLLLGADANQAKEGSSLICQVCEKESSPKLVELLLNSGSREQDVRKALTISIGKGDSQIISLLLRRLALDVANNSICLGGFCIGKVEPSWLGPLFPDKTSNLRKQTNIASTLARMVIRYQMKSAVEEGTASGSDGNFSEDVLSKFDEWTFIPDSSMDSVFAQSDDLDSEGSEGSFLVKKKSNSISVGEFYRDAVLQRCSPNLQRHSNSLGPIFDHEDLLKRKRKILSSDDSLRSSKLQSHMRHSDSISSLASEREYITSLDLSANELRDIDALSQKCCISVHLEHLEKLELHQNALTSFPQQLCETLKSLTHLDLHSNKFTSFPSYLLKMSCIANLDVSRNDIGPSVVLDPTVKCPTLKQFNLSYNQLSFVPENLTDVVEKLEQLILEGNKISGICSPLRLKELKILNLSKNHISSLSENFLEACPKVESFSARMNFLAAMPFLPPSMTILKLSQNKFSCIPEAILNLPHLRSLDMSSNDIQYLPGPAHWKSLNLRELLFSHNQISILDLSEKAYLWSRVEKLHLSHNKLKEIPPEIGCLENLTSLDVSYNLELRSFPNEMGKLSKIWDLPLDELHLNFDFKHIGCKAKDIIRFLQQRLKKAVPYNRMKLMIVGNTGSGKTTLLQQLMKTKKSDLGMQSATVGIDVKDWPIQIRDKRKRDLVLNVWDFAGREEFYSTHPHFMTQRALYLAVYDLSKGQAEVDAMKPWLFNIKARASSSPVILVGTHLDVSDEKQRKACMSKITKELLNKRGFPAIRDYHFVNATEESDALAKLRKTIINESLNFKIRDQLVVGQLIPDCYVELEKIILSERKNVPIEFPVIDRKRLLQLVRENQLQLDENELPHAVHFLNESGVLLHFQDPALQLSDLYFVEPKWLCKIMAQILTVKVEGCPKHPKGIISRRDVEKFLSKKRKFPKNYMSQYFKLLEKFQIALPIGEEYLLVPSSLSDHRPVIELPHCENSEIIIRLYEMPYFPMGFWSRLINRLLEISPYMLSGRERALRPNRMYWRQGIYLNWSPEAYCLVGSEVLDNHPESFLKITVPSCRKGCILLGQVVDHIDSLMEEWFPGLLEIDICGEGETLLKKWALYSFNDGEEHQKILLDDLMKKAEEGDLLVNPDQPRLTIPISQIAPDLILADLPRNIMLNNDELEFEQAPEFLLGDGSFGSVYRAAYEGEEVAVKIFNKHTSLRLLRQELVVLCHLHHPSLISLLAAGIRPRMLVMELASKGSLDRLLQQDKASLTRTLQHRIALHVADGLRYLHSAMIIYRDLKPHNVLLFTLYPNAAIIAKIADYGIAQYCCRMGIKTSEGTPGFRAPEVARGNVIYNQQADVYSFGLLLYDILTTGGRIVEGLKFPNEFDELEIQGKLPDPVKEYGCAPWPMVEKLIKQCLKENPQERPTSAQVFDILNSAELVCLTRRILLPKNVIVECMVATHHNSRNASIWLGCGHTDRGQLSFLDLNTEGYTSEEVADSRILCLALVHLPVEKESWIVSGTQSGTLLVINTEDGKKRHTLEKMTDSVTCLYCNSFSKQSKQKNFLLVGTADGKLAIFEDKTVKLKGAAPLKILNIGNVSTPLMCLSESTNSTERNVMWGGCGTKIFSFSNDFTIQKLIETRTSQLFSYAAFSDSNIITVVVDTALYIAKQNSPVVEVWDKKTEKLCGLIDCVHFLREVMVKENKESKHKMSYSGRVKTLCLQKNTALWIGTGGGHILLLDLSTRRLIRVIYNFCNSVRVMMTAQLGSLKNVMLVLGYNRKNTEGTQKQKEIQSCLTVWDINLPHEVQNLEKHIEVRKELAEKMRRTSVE

T3 sequence (Q9H2G2 whole entry): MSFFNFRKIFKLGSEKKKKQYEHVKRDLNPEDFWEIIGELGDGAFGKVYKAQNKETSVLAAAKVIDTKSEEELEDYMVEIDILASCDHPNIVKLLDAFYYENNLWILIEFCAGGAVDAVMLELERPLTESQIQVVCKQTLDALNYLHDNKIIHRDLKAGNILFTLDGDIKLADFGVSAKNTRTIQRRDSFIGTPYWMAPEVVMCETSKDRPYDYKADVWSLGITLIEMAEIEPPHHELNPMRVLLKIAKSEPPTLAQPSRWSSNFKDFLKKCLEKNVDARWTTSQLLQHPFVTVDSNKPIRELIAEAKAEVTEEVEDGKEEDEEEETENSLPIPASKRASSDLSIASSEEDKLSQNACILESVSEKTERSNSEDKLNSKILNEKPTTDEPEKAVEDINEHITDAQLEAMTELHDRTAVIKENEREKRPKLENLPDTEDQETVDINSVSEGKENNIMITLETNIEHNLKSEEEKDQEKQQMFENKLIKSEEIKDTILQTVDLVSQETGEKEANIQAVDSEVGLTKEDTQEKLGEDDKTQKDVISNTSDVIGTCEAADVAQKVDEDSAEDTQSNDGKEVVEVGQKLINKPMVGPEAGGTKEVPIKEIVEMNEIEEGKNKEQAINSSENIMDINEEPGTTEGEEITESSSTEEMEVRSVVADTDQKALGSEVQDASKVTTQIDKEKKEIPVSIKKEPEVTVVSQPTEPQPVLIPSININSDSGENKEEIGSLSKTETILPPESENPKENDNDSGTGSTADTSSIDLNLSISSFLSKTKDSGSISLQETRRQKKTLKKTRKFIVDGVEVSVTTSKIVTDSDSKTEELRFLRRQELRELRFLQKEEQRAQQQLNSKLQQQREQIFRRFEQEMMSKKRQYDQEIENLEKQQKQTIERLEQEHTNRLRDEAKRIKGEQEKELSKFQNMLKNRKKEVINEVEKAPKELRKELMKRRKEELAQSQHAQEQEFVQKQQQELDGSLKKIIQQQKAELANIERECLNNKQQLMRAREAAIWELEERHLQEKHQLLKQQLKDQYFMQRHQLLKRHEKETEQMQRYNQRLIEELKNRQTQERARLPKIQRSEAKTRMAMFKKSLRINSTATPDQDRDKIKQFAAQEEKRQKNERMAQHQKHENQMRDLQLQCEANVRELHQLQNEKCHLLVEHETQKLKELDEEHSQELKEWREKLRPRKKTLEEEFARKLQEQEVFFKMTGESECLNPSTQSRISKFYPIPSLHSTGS
T4 sequence (Q13705 19-512): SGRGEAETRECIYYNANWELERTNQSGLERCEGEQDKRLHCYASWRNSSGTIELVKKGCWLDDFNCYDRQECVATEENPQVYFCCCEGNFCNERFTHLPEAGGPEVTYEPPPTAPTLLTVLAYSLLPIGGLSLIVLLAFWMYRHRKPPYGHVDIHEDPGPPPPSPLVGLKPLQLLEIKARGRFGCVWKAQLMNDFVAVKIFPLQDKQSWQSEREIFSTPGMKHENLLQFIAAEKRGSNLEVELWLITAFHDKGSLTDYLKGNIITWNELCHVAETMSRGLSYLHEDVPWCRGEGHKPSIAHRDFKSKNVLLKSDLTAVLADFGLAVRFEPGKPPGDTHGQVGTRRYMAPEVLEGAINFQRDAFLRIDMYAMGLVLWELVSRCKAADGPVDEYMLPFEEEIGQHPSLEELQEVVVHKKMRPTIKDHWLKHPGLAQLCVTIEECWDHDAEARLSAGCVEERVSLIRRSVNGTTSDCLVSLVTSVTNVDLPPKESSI
T2 sequence (P49137 whole entry): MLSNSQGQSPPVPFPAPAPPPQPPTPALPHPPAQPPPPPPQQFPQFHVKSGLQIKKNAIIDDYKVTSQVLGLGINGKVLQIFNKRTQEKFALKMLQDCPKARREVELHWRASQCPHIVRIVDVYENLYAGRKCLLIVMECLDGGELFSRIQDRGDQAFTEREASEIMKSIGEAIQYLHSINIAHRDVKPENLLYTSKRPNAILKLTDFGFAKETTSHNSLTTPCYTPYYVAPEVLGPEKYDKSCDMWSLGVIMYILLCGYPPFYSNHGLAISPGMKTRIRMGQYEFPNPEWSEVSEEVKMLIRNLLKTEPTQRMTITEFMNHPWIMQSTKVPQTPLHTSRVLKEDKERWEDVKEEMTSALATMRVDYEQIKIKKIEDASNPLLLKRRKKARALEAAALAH
T9 sequence (Q13882 whole entry): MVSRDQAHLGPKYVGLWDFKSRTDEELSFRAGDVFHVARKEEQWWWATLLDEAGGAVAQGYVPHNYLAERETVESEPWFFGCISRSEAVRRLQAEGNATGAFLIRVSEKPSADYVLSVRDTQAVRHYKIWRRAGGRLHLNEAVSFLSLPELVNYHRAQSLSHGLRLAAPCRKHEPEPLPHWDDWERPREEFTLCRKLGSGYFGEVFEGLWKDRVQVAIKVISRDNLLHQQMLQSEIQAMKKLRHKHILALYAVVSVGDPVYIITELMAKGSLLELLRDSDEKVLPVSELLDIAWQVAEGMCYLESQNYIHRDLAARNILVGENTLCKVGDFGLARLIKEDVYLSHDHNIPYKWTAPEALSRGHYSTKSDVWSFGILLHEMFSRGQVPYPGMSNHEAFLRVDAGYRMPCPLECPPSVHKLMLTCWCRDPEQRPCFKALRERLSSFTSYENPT

In the case of `CNC(=O)c1ccc2c(c1)C(=O)c1ccc(Nc3ccc(F)c(NC(=O)C4CC4)c3)cc1CC2` [Compound 2015], the remaining activity at 0.2 µM (340 wild-type kinases [1]; 0.2 µM 2015, read-out: MST2 residual activity) is reported as 115%, the remaining activity at 1 µM (340 wild-type kinases [1]; 1 µM 2015, read-out: MST2 residual activity) is reported as 106% and the remaining activity at 0.2 µM (340 wild-type kinases [1]; MST2, 0.2 µM, read-out: residual activity) is reported as 115%. The remaining activity at 1 µM (340 wild-type kinases [1]; MST2, 1 µM, read-out: residual activity) was 106%, the remaining activity at 0.2 µM (340 wild-type kinases [2]; 0.2 µM 2015, read-out: MAPKAPK2 residual activity) was 153% and the remaining activity at 1 µM (340 wild-type kinases [2]; 1 µM 2015, read-out: MAPKAPK2 residual activity) was 118%. The remaining activity at 0.2 µM (340 wild-type kinases [2]; MAPKAPK2, 0.2 µM, read-out: residual activity) was 153%, the remaining activity at 1 µM (340 wild-type kinases [2]; MAPKAPK2, 1 µM, read-out: residual activity) was 118% and the remaining activity at 0.2 µM (340 wild-type kinases [3]; 0.2 µM 2015, read-out: SLK residual activity) was 75%. The remaining activity at 1 µM (340 wild-type kinases [3]; 1 µM 2015, read-out: SLK residual activity) was 75.3%, the remaining activity at 0.2 µM (340 wild-type kinases [3]; SLK, 0.2 µM, read-out: residual activity) was 75% and the remaining activity at 1 µM (340 wild-type kinases [3]; SLK, 1 µM, read-out: residual activity) was 75.3%. It also gave a remaining activity at 0.2 µM (340 wild-type kinases [4]; 0.2 µM 2015, read-out: ACVR2B residual activity) of 81.6%, a remaining activity at 1 µM (340 wild-type kinases [4]; 1 µM 2015, read-out: ACVR2B residual activity) of 82.3% and a remaining activity at 0.2 µM (340 wild-type kinases [4]; ACVR2B, 0.2 µM, read-out: residual activity) of 81.7%. The remaining activity at 1 µM (340 wild-type kinases [4]; ACVR2B, 1 µM, read-out: residual activity) was 82.3%, the remaining activity at 0.2 µM (340 wild-type kinases [5]; 0.2 µM 2015, read-out: PAK1 residual activity) was 94.7% and the remaining activity at 1 µM (340 wild-type kinases [5]; 1 µM 2015, read-out: PAK1 residual activity) was 79.5%. The remaining activity at 0.2 µM (340 wild-type kinases [5]; PAK1, 0.2 µM, read-out: residual activity) was 94.7%, the remaining activity at 1 µM (340 wild-type kinases [5]; PAK1, 1 µM, read-out: residual activity) was 79.5% and the remaining activity at 0.2 µM (340 wild-type kinases [6]; 0.2 µM 2015, read-out: PRKG1 residual activity) was 106%. It also gave a remaining activity at 1 µM (340 wild-type kinases [6]; 1 µM 2015, read-out: PRKG1 residual activity) of 104%, a remaining activity at 0.2 µM (340 wild-type kinases [6]; PRKG1, 0.2 µM, read-out: residual activity) of 106% and a remaining activity at 1 µM (340 wild-type kinases [6]; PRKG1, 1 µM, read-out: residual activity) of 104%. It also gave a remaining activity at 1 µM (340 wild-type kinases [7]; 1 µM 2015, read-out: ERK1 residual activity) of 104%, a remaining activity at 0.2 µM (340 wild-type kinases [7]; ERK1, 0.2 µM, read-out: residual activity) of 108% and a remaining activity at 1 µM (340 wild-type kinases [7]; ERK1, 1 µM, read-out: residual activity) of 104%. The remaining activity at 0.2 µM (340 wild-type kinases [8]; 0.2 µM 2015, read-out: ERK7 residual activity) was 93%, the remaining activity at 1 µM (340 wild-type kinases [8]; 1 µM 2015, read-out: ERK7 residual activity) was 82.2% and the remaining activity at 0.2 µM (340 wild-type kinases [8]; ERK7, 0.2 µM, read-out: residual activity) was 93%. The remaining activity at 1 µM (340 wild-type kinases [8]; ERK7, 1 µM, read-out: residual activity) was 82.2%, the remaining activity at 0.2 µM (340 wild-type kinases [9]; 0.2 µM 2015, read-out: BRK residual activity) was 100% and the remaining activity at 1 µM (340 wild-type kinases [9]; 1 µM 2015, read-out: BRK residual activity) was 108%. It also gave a remaining activity at 0.2 µM (340 wild-type kinases [9]; BRK, 0.2 µM, read-out: residual activity) of 100%, a remaining activity at 1 µM (340 wild-type kinases [9]; BRK, 1 µM, read-out: residual activity) of 108% and a remaining activity at 0.2 µM (340 wild-type kinases [10]; 0.2 µM 2015, read-out: LRRK2 residual activity) of 98.2%. The remaining activity at 1 µM (340 wild-type kinases [10]; 1 µM 2015, read-out: LRRK2 residual activity) was 93.8%, the remaining activity at 0.2 µM (340 wild-type kinases [10]; LRRK2, 0.2 µM, read-out: residual activity) was 98.2% and the remaining activity at 1 µM (340 wild-type kinases [10]; LRRK2, 1 µM, read-out: residual activity) was 93.8%.
